Reference: patent EP0317544A1, “Method of modifying the micro environment of an enzyme by cross-linking the peptidic molecules, use thereof for making enzymatic reactors requiring the regeneration of the cofactor” (priority 1987, dated 1989)

Key:
[1] = biological target: alcool déshydrogénase (ADH), préparation ADH-LYS (polylysine, forme soluble) (Saccharomyces cerevisiae, UniProt P00330); experiment: Two-substrate ordered kinetics of alcohol dehydrogenase, soluble polylysine-grafted preparation; format: biochemical; conditions: compared with the other soluble preparations
Excerpt: (§1) L'alcool déshydrogénase étant un enzyme suivant une réaction ordonnée à deux substrats, sa cinétique répond à l'équation : [formula] Ka et Kb sont les constantes de type Michaelis-Menten correspondant à la dissociation du complexe ternaire du NAD⁺ et de l'éthanol alors que Kia représente la constante de dissociation du complexe binaire ADH-NAD⁺ (Wratten et Cleland, 1963, Biochemistry 2, 935-941).
(§2) Les valeurs des constantes pour les diverses préparations sont donnés au tableau 3. Nous ne pouvons pas ici interpréter chacune de ces valeurs et nous nous limiterons aux variations les plus importantes. En ce qui concerne le Kia, rappelons que plus le Kia est petit, plus l'affinité de l'enzyme pour la fixation de son premier substrat, le NAD⁺ est grande. Nous remarquons peu de variation pour les préparations solubles excepté pour la polylysine. […] Il faut aussi tenir compte de la charge positive de la lysine qui pourrait inhiber la diffusion du NAD⁺. Dans le cas de Ka et Kb, la fixation des peptides sur l'enzyme augmente les constantes, c'est-à-dire diminue l'affinité de fixation de ces substrats sur les complexes quaternaires de l'enzyme. Dans le cas des enzymes incorporés dans le gel, on constate aussi certains changements mais il faut en plus de l'effet du micro-environnement tenir compte des effets de diffusion. […]

[2] = biological target: alcool déshydrogénase (ADH), préparation ADH-LYS-PAA (poly-lysine-résine, forme immobilisée) (Saccharomyces cerevisiae, UniProt P00330); experiment: Two-substrate ordered kinetics of alcohol dehydrogenase, polylysine-grafted preparation copolymerised in polyacrylamide gel; format: biochemical; conditions: enzyme incorporated in polyacrylamide gel; apparent value, diffusion effects
Excerpt: as §1, §2

Sequence of alcool déshydrogénase (ADH), préparation ADH-LYS (polylysine, forme soluble) (P00330 2-348): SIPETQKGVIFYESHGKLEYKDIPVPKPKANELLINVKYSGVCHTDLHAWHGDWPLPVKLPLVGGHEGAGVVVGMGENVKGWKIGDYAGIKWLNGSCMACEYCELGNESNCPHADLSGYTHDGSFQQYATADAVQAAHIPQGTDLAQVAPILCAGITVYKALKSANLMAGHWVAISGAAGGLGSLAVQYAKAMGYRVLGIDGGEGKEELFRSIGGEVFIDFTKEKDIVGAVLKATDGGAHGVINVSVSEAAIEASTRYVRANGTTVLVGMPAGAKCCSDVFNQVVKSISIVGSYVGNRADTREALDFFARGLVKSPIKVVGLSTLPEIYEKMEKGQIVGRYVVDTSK
Sequence of alcool déshydrogénase (ADH), préparation ADH-LYS-PAA (poly-lysine-résine, forme immobilisée) (P00330 2-348): as above

## NC(=O)c1ccc[n+]([C@@H]2O[C@H](COP(=O)([O-])OP(=O)(O)OC[C@H]3O[C@@H](n4cnc5c(N)ncnc54)[C@H](O)[C@@H]3O)[C@@H](O)[C@H]2O)c1 [NAD⁺]
[1]
  Kia (constante de dissociation du complexe binaire ADH-NAD⁺): baisse d'affinité
[2]
  Kia (constante de dissociation du complexe binaire ADH-NAD⁺): très faible
